{"source": "patent EP4473961A1", "about": "“ORAL SOLID PHARMACEUTICAL FORMULATION COMPRISING METHADONE/LEVOMETHADONE AND OPTIONALLY NALOXONE” (L. MOLTENI & C. DEI FRATELLI ALITTI SOCIETA' DI ESERCIZIO …, priority 2023, dated 2024)", "tested_on": "crisis of withdrawal from morphine", "conditions": "rat, in vivo", "data": [{"molecule": "CCC(=O)C(CC(C)N(C)C)(c1ccccc1)c1ccccc1", "note": "(centres unmarked) [methadone]", "values": [{"measurement": "effect on withdrawal symptoms", "result": "significantly reduced the symptoms"}, {"measurement": "values of the scores relative to the group treated with morphine alone", "result": "about 50%"}]}]}
